From ChEMBL document CHEMBL1201862, “PubChem BioAssay data set” (2004)
Active and inactive are the calls of the source.

Tests used:
Large T antigen = Large T antigen (Simian virus 40, UniProt P03070); type: functional, Betapolyomavirus macacae;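 also: Confirmatory-stage PubChem screen for compounds that inhibit SV40 T antigen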
[1] = target: 26S proteasome non-ATPase regulatory subunit 14 (Homo sapiens, UniProt O00487); experiment: inhibition of proteasome subunit RPN11 – biochemical, fluorescence polarization, uHTS hits, confirmation (AID 602368); type: functional
Chain of 26S proteasome non-ATPase regulatory subunit 14 (O00487 whole entry): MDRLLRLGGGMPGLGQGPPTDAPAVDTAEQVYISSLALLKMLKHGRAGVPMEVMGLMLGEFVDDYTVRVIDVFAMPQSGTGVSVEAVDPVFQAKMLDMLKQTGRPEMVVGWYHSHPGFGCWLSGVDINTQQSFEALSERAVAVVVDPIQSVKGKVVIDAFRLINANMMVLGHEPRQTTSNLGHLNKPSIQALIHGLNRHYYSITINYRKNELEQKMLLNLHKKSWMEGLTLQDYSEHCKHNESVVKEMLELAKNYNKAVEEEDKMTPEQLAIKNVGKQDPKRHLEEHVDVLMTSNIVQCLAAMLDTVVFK

[2] = target: 72 kDa type IV collagenase (Homo sapiens, UniProt P08253); experiment: Dose Response validation of uHTS RPN11 inhibitor hits using a MMP-2 Fluorescence assay.; type: functional
Chain of 72 kDa type IV collagenase (P08253 whole entry): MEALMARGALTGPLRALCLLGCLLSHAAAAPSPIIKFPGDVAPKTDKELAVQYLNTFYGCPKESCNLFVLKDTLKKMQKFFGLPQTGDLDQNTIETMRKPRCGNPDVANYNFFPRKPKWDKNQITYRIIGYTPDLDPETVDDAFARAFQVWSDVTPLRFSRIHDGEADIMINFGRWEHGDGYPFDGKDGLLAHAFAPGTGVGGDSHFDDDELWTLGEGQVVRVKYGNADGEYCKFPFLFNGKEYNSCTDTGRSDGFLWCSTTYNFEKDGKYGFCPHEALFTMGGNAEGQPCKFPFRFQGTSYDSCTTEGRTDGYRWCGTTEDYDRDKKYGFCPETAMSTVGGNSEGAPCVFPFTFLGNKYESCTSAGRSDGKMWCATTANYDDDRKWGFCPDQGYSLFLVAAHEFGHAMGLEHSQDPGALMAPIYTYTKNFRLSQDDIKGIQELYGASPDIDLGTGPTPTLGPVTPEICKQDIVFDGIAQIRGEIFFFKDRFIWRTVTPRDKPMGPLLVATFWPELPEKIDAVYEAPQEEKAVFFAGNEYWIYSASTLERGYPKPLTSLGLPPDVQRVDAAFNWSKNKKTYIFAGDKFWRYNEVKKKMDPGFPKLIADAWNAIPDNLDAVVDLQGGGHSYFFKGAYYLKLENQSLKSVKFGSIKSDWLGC

Prothrombin = Prothrombin (Bos taurus, UniProt P00735); experiment: thrombin protease inhibitors – biochemical, fluorescence polarization, uHTS hits, dose response (AID 602369); type: functional
[3] = NIH-3T3 fibroblast cytotoxicity, dose response, cytotoxicity control, cell-based, fluorescence, Alamar Blue, secondary assay (AID 2327); type: functional;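 also: NIH-3T3 mouse fibroblasts cultured with fluconazole at 8 µg/mL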
[4] = fluconazole-exposed Candida albicans growth modulators – fluorescence, retest, confirmation (AID 2467); type: functional, cell-based
[5] = target: T1, Serine/threonine-protein phosphatase (Candida dubliniensis (strain CD36 / CBS 7987 / NCPF 3949 / NRRLY-17841) (Yeast), UniProt B9W6M3); experiment: blockers of CaCl2-induced CDRE-lacZ signaling – S. cerevisiae, luminescence, secondary, dose response (AID 2388); type: functional, cell-based;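 also: yeast reporter cells carrying a calcineurin-responsive lacZ construct stimulated with calcium chloride; luminescent beta-galactosidase reporter signal in whole cells rather than isolated phosphatase activity; potency for inhibition where a drop in reporter signal means calcineurin blockade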
T1 sequence (B9W6M3 whole entry): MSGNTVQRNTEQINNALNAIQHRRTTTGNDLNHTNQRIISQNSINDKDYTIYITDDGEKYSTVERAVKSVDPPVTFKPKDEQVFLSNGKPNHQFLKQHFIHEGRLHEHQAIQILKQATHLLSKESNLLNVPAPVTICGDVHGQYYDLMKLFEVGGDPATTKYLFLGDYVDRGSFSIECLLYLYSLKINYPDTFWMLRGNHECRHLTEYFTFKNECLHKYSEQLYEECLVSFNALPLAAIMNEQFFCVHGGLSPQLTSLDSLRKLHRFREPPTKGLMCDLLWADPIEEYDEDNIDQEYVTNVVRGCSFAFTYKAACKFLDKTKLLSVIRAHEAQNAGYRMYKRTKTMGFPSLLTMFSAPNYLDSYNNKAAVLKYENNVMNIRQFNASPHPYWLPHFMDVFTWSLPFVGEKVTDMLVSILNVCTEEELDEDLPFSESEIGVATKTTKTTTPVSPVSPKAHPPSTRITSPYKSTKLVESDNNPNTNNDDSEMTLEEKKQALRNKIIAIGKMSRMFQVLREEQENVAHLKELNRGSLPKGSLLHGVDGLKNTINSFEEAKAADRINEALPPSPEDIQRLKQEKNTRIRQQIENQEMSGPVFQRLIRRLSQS

INS1 = experiment: INS-1E survival protection against cytokine death – cell-based, luminescence, retest, dose response (AID 449756); type: functional; details: Rattus norvegicus;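 also: cell death triggered by IL-1 beta plus TNF-alpha plus IFN-gamma mixture; protective hits raise ATP signal compared with cytokine alone wells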
[6] = target: ATP-dependent molecular chaperone HSP82 (Candida albicans (strain WO-1) (Yeast), UniProt C4YTQ8); experiment: steroid-induced GRE reporter decrease in yeast – S. cerevisiae, luminescence, Hsp90 inhibitor project, dose response (AID 2400); type: functional, cell-based;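 also: beta-galactosidase luminescence from glucocorticoid response element reporter as proxy for Hsp90 function; inhibitor potency where signal loss means Hsp90 inhibition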
Chain of ATP-dependent molecular chaperone HSP82 (C4YTQ8 whole entry): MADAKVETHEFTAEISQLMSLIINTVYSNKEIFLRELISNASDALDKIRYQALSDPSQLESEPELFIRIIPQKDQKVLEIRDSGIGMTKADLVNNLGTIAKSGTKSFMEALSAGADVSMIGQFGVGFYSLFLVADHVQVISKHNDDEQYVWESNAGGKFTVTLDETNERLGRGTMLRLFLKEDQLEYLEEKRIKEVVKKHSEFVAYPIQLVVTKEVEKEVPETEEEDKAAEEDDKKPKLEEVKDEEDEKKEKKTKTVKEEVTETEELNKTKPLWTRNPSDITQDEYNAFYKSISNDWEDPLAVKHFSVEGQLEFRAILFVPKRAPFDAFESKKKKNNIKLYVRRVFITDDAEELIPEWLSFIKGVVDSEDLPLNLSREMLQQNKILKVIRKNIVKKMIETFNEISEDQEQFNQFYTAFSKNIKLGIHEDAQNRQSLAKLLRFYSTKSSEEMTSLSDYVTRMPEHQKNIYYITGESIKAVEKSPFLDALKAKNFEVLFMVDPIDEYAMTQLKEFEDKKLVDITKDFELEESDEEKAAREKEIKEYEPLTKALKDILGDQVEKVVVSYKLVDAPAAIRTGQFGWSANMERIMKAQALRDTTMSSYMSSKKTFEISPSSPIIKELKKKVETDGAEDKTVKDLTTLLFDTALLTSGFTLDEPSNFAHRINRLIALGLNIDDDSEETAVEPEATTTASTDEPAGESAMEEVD

[7] = tested on: Streptococcus sp. 'group A'; experiment: Streptococcus pyogenes SK(-)GAS viability under kanamycin – luminescence, BacTiterGlo, confirmation, counter-screen for streptokinase expression inhibitor project, dose response (AID 1900); type: functional, organism-based
Streptokinase A = target: T2, Streptokinase A (Streptococcus pyogenes serotype M1, UniProt P10520); experiment: viability-normalized secreted streptokinase activity reduction – plasminogen activation absorbance, OD405, dose response (AID 1914); type: functional, Streptococcus pyogenes M1 GAS;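 also: secreted streptokinase activity via plasminogen activation per viability signal from cell pellet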
T2 sequence (P10520 whole entry): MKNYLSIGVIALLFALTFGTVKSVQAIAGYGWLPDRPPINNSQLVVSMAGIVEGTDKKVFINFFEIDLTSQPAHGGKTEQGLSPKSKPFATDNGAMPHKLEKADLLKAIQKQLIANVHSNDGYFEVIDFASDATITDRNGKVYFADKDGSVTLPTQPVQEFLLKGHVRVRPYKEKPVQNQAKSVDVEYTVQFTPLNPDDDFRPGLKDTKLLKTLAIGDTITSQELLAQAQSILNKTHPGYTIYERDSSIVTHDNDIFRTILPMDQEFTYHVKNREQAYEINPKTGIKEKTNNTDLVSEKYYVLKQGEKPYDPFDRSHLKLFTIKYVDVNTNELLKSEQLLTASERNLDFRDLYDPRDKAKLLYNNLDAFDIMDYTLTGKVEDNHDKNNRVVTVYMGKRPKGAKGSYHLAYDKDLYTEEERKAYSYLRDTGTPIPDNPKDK

Streptococcus = experiment: GAS UMAA2166 growth inhibition – luminescence, BacTiterGlo, counter-screen for streptokinase expression inhibitor project, dose response (AID 1915); type: functional, organism-based;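 also: potency for reduction of bacterial viability or growth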
H9c2 = experiment: cells; type: functional, cell-based; details: Rattus norvegicus, H9c2, Myocardium;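 also: confirmatory concentration-response retest of ultra-high-throughput screening hits for modulation of myocardial damage; cell death induced by hydrogen peroxide oxidative stress; compound pretreatment for 60 min then peroxide exposure for 2 h; potency is for protecting the cells against peroxide damage rather than for killing them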
[8] = viability loss in HeLa cells – cytotoxicity control for MgcRacGAP inhibitor project, dose response (AID 624300); type: functional
[9] = target: T3, Rac GTPase-activating protein 1 (Homo sapiens, UniProt Q9H0H5); experiment: blockers of MgcRacGAP-driven Rac1 GTP hydrolysis – biochemical, ADP Hunter fluorescence, primary and confirmatory, confirmation (AID 624330); type: functional
T3 sequence (Q9H0H5 whole entry): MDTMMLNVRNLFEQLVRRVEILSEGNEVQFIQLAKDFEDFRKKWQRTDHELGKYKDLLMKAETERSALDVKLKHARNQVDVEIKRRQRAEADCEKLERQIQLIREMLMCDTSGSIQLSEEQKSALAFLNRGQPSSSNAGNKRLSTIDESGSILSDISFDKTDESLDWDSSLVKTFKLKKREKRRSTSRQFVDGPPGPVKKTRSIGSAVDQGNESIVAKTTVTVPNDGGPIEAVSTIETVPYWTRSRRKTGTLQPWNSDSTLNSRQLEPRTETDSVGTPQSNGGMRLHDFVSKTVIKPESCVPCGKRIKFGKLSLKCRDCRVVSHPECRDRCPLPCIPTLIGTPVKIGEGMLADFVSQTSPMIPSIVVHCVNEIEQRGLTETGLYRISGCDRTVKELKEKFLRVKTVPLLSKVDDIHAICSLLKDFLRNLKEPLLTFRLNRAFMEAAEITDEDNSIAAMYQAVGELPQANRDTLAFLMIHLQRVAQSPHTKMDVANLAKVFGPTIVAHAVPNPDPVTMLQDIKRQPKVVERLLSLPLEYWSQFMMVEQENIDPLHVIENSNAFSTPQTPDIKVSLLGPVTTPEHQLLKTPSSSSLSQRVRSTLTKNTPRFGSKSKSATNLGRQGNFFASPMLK

[10] = target: T4, DNA repair protein RAD52 homolog (Homo sapiens, UniProt P43351); type: functional, biochemical
T4 sequence (P43351 whole entry): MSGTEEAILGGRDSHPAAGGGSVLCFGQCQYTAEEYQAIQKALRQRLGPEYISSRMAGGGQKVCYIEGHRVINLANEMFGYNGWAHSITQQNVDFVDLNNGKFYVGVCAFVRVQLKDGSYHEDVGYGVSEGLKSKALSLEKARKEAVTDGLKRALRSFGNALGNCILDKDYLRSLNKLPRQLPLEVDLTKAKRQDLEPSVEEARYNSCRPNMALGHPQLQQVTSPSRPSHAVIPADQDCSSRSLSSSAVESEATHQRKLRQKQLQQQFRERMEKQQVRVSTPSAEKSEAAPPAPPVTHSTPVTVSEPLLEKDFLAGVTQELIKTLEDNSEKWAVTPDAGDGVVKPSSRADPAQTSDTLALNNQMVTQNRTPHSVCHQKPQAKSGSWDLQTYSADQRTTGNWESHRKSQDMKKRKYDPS

Galanin receptor type 3 = target: T5, Galanin receptor type 3 (Homo sapiens, UniProt O60755); experiment: Fluorescence-based cell-based primary high throughput dose response assay to identify antagonists of the Galanin Receptor 3 (GalR3).; type: functional
T5 sequence (O60755 whole entry): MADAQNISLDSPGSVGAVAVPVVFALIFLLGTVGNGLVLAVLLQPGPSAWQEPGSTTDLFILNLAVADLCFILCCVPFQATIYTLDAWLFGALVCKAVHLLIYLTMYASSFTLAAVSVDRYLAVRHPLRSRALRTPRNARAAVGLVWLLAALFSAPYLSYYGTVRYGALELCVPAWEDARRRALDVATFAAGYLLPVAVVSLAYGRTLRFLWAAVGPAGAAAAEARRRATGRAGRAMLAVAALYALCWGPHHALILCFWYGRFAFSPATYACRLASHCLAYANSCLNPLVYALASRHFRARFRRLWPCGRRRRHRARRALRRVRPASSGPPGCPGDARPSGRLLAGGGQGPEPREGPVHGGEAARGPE

cells = type: functional, cell-based; details: HEK-CNG

Chain of Large T antigen (P03070 whole entry): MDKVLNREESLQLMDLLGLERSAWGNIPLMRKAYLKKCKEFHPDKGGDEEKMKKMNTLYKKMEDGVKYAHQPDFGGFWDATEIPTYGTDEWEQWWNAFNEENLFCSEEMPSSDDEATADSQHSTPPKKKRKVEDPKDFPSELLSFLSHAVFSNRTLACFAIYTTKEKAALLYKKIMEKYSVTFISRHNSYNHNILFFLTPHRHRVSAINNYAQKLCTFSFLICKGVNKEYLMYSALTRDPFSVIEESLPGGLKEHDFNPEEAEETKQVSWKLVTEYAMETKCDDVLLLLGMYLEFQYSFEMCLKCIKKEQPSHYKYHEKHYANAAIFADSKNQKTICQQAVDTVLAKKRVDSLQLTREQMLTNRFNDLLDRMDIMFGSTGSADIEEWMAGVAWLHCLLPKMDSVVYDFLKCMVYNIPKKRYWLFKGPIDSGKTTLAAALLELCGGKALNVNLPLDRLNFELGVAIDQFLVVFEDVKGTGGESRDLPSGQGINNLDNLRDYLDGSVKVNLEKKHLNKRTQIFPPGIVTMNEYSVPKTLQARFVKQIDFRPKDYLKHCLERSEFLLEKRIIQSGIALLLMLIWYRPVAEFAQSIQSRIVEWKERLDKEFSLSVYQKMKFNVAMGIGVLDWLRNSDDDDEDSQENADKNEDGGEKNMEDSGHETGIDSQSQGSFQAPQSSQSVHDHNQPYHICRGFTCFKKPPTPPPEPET

For `O=C1NC(=O)N(c2ccc(Cl)cc2)C(=O)/C1=C\c1ccc(Sc2nc3ccccc3[nH]2)o1`, the IC50 (Large T antigen) was 18.8 µM (active), the IC50 [1] was 42.2 µM (active) and the IC50 [2] was > 100 µM (inactive). The IC50 (Prothrombin) was 44.9 µM (active).
With `COc1ccc(C2C(C#N)=C(N)Oc3c2ccc2cccnc32)cc1OC` (configuration not stated) the EC50 [3] was 19.1 µM (inconclusive), the EC50 [4] was 5.01 µM (active) and the EC50 [5] was > 180 µM (inactive). For the same molecule, the AC50 (INS1) was 6.75 µM (active) and the EC50 [6] was > 150 µM (inactive).
In the case of `COc1ccc(-n2c(/C=C/c3ccc(O)c(OC)c3)nc3ccccc3c2=O)cc1`, the EC50 [7] was 22 µM (active), the EC50 (Streptokinase A) was > 150 µM (not active) and the EC50 (Streptococcus) was 26.5 µM (active). For the same molecule, the IC50 (H9c2) was > 79 µM (inactive), the CC50 [8] was 71 µM (active) and the IC50 [9] was 52.4 µM (active).
For `CCN1CCc2nc(N)sc2C1`, the AC50 [10] was 23.4 µM (active).
With `COCCn1c(C)cc(C(=O)COc2nc3ccccc3nc2C)c1C` the IC50 (Galanin receptor type 3) was 3.67 µM (active) and the EC50 (cells) was > 29.9 µM (inactive).
With `CCOC(=O)c1c(N=C(S)NCC2CCCO2)sc(C)c1C` (configuration not stated) the EC50 [3] was > 150 µM (inactive), the EC50 [4] was 0.635 µM (active) and the EC50 [5] was > 180 µM (inactive). For the same molecule, the EC50 [6] was 16.9 µM (active).
